Assay results reported in ChEMBL document CHEMBL1131428, “Immunophilins: beyond immunosuppression” (J Med Chem, 1998).

Columns and labels:
[1] = species: Gallus gallus; test: In Vitro neurotrophic effect was measured in cultured chick DRG sensory neurons.; format: functional; details: read-out: ED50 (the source's name)
[2] = target: Peptidyl-prolyl cis-trans isomerase FKBP1A (Homo sapiens, UniProt P62942); test: Compound was tested for its ability to inhibit FK506 binding protein 12 rotamase activity
Peptidyl-prolyl cis-trans isomerase FKBP1A, sequence (P62942 whole entry): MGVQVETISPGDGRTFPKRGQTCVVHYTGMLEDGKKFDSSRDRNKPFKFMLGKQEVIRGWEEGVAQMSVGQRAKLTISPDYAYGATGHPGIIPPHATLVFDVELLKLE

[3] = tested on: Mus musculus; test: Compound was evaluated for the recovery of Striatal TH immunostaining in MPTP-treated mice by concurrent treatment after 4 mg/kg sc administration.; format: functional, organism-based; set-up: dose 4 mg/kg; details: at 4 mg/kg
[4] = tested on: Mus musculus; test: Compound was evaluated for the recovery of Striatal TH immunostaining in MPTP-treated mice by concurrent treatment after 40 mg/kg sc administration.; format: functional, organism-based; set-up: dose 40 mg/kg; details: at 40 mg/kg
[5] = species: Rattus norvegicus; test: Compound was evaluated for the regrowth of Striatal dopamine neurons in 6HODA-lesioned rats at 60 days; format: functional, organism-based
[6] = species: Rattus norvegicus; test: Compound was evaluated for the regrowth of Striatal dopamine neurons in 6HODA-lesioned rats at 28 days; format: functional, organism-based
[7] = species: Rattus norvegicus; test: Compound was evaluated for the regrowth of Striatal dopamine neurons in 6HODA-lesioned rats at 7 days; format: functional, organism-based
[8] = species: Rattus norvegicus; test: Compound was evaluated for the regrowth of Striatal dopamine neurons in 6HODA-lesioned rats at 120 days; format: functional, organism-based
[9] = species: Rattus norvegicus; test: Compound was evaluated for the regrowth of Striatal dopamine neurons in 6HODA-lesioned rats at 1h.; format: functional, organism-based
[10] = tested on: Rattus norvegicus; test: Mean axonal area to promote nerve regeneration in rats with lesioned sciatic nerves was measured after 1 mg/kg sc daily administration.; format: functional; details: route subcutaneous
[11] = tested on: Rattus norvegicus; test: Axonal regeneration rate to promote nerve regeneration in rats with lesioned sciatic nerves was measured after 5 mg/kg sc daily administration.; format: functional; details: route subcutaneous
[12] = tested on: Rattus norvegicus; test: Mean axonal area to promote nerve regeneration in rats with lesioned sciatic nerves was measured after 2 mg/kg sc daily administration.; format: functional; details: route subcutaneous
[13] = tested on: Rattus norvegicus; test: Mean axonal area to promote nerve regeneration in rats with lesioned sciatic nerves was measured after 10 mg/kg sc daily administration.; format: functional; details: route subcutaneous
[14] = tested on: Rattus norvegicus; test: Mean axonal area to promote nerve regeneration in rats with lesioned sciatic nerves was measured after 5 mg/kg sc daily administration.; format: functional; details: route subcutaneous
[15] = tested on: Rattus norvegicus; test: Axonal regeneration rate to promote nerve regeneration in rats with lesioned sciatic nerves was measured after 1 mg/kg sc daily administration.; format: functional; details: route subcutaneous
[16] = tested on: Rattus norvegicus; test: Axonal regeneration rate to promote nerve regeneration in rats with lesioned sciatic nerves was measured after 10 mg/kg sc daily administration.; format: functional; details: route subcutaneous

Row | Structure (SMILES) | EC50 [1] [nM] | Ki [2] [nM] | also measured
1 | COc1cc(C(=O)C(=O)N2CCCCC2C(=O)OC(CCCc2ccccc2)CCCc2ccccn2)cc(OC)c1OC (stereo not given) | 0.05 | – | –
2 | CCC(C)(C)C(=O)C(=O)N1CCCC1C(=O)OCCCC1CCCCC1 (stereo not given) | 0.257 | 194 | –
3 | CCC(C)(C)C(=O)C(=O)N1CCCC1C(=O)OCCCc1ccc2c(c1)OCO2 (stereo not given) | 10 | 170 | –
4 | CCC(C)(C)C(=O)C(=O)N1CCCCC1C(=O)OCCCc1ccccc1 (stereo not given) | – | 250 | –
5 | CCC(C)(C)C(=O)C(=O)N1CCCC1C(=O)OCCCc1ccccc1 (stereo not given) | – | 42 | –
6 | O=C(C(=O)N1CCCCC1C(=O)OCCCc1ccccc1)C1CCCCC1 (stereo not given) | 0.82 | 210 | –
7 | CO[C@H]1C[C@@H]2CC[C@@H](C)[C@@](O)(O2)C(=O)C(=O)N2CCCC[C@H]2C(=O)O[C@H]([C@H](C)C[C@@H]2CC[C@@H](O)[C@H](OC)C2)CC(=O)[C@H](C)/C=C(\C)[C@@H](O)[C@@H](OC)C(=O)[C@H](C)C[C@H](C)/C=C/C=C/C=C/1C [SIROLIMUS] | 0.5 | – | –
8 | COC(=O)C(=O)N1CCCCC1C(=O)OCc1ccccc1 (stereo not given) | > 10000 | 8000 | –
9 | COc1cc(C(=O)C(=O)N2CCCCC2C(=O)OC(CCCc2ccccc2)CCc2cccnc2)cc(OC)c1OC (stereo not given) | 0.95 | – | –
10 | O=C(OCCCCc1ccccc1)C1CCCCN1S(=O)(=O)Cc1ccccc1 (stereo not given) | 0.03 | – | Recovery [3]: 38%
11 | COc1ccc(CCCCOC(=O)C2CCCCN2C(=O)C(=O)c2cc(OC)c(OC)c(OC)c2)cc1 (stereo not given) | 0.03 | – | –
12 | O=C(C(=O)N1CCCCC1C(=O)OC(CCCc1ccccc1)CCCc1ccccc1)c1ccccc1 (stereo not given) | – | 3 | –
13 | COC(=O)C(=O)N1CCCCC1C(=O)OCCCC1CCCC1 (stereo not given) | > 10000 | – | –
14 | CCC(C)CNC(=O)N1CCCCC1C(=O)OCCCc1cccnc1 (stereo not given) | 0.07 | 70 | Recovery [3]: 27.5%
15 | CC(C)(C)C(=O)C(=O)N1CCCCC1C(=O)OCCCc1ccccc1 (stereo not given) | – | – | Recovery [4]: 32.4%
16 | CCC(C)(C)C(=O)C(=O)N1CCCC1C(=O)OCCCc1cccnc1 (stereo not given) | 0.05 | 7.5 | Recovery [5]: 17.3%; Recovery [4]: 67.5%; Recovery [6]: 28.1%; Recovery [7]: 25.5%; Recovery [8]: 19.5%; Recovery [9]: 34.2%
17 | O=C(C(=O)N1CCCC1C(=O)OCCCc1cccnc1)C1CCCCC1 (stereo not given) | 2 | – | –
18 | CCC(OC(=O)C1CCCCN1C(=O)C(=O)C(C)(C)CC)C(CCc1ccccc1)c1ccc(OC)cc1 (stereo not given) | 0.17 | 15 | –
19 | O=C(OCCCc1cccnc1)C1CCCN1C(=S)NC1CCCCC1 (stereo not given) | 0.3 | 131 | Recovery [3]: 56.1%
20 | O=C(OC(CCCc1ccccc1)Cc1ccccc1)C1CCCCN1S(=O)(=O)Cc1ccccc1 (stereo not given) | 0.133 | 107 | –

Row | Structure (SMILES) | EC50 [1] [nM] | Ki [2] [nM] | also measured
21 | CC(C)(C)C(=O)C(=O)N1CCCCC1C(=O)OC(CCCc1ccccc1)CCCc1ccccc1 (stereo not given) | – | – | Recovery [4]: 43.8%
22 | O=C(OCCCc1cccnc1)C1CCCN1S(=O)(=O)Cc1ccccc1 (stereo not given) | – | 72 | Recovery [3]: 44.3%
23 | CCC(C)(C)C(=O)C(=O)N1CCCCC1C(=O)O[C@H](CCc1ccccc1)c1ccccc1 (stereo not given in full) | 0.3 | – | –
24 | CCC(C)(C)C(=O)C(=O)N1CCCC1C(=O)OC/C=C/c1cc(OC)ccc1OC (stereo not given) | 0.8 | 450 | –
25 | CCC(C)(C)C(=O)C(=O)N1CCCCC1C(=O)OCCCc1cccnc1 (stereo not given) | 8.5 | 130 | –
26 | CCC(C)(C)C(=O)C(=O)N1CCCCC1C(=O)OCCCc1cc(OC)ccc1OC (stereo not given) | 2.5 | 12 | –
27 | CCOC(=O)C1CCCCN1C(=O)C(=O)C(C)(C)CC (stereo not given) | – | 1300 | –
28 | CCOC(=O)C1CCCCN1C(=O)C(C)=O (stereo not given) | > 10000 | > 10000 | –
29 | O=C(C(=O)N1CCCCC1C(=O)OC(CCCc1ccccc1)CCCc1ccccn1)c1ccccc1 (stereo not given) | 0.063 | 50 | –
30 | CCC(C)(C)C(=O)C(=O)N1CCCC1C(=O)OCCCc1cc(OC)ccc1OC (stereo not given) | 2 | 250 | –
31 | CC(C)(C)C(=O)C(=O)N1CCCCC1C(=O)OCCCC1CCCCC1 (stereo not given) | 0.29 | 32 | –
32 | CCC(C)(C)C(=O)C(=O)N1CCCCC1C(=O)OCCCC1CCCCC1 (stereo not given) | 1 | – | –
33 | O=C(OCCCCc1ccccc1)C1CCCCN1S(=O)(=O)c1ccccc1 (stereo not given) | – | – | Recovery [3]: 29.2%
34 | CCC(C)(C)C(=O)C(=O)N1CCCCC1C(=O)OCCCc1cc(OC)c(OC)c(OC)c1 (stereo not given) | – | 25 | –
35 | O=C(C(=O)N1CCCCC1C(=O)OCCCc1cccnc1)c1ccccc1 (stereo not given) | 0.8 | 725 | –
36 | Cc1ccc(S(=O)(=O)N2CCCCC2C(=O)OC(CCCc2ccccc2)CCCc2ccccc2)cc1 (stereo not given) | 1 | 332 | –
37 | COc1ccc(CCCCOC(=O)C2CCCCN2C(=O)C(=O)C(C)(C)C)cc1 (stereo not given) | – | 24 | Recovery [4]: 58.9%
38 | CCOC(=O)C1CCCCN1C(=O)C(=O)OC (stereo not given) | – | > 10000 | –
39 | CCC(C)(C)C(=O)C(=O)N1CCCCC1C(=O)OCCCCc1ccc(OC)cc1 (stereo not given) | – | 60 | –
40 | CC(C)(C)C(=O)C(=O)N1CCCCC1C(=O)OC1C2CC3CC(C2)CC1C3 (stereo not given) | 0.11 | 78 | –

Row | Structure (SMILES) | EC50 [1] [nM] | Ki [2] [nM] | also measured
41 | CC(C)(C)C(=O)C(=O)N1CCCC1C(=O)OCCCc1cccnc1 (stereo not given) | – | 3 | –
42 | COC(=O)C(=O)N1CCCCC1C(=O)OCCCCC1CCCCC1 (stereo not given) | > 10000 | – | –
43 | CCC(C)(C)C(=O)C(=O)N1CCCC1C(=O)OCCCc1ccccn1 (stereo not given) | 0.075 | 195 | –
44 | CC(C)(C)C(=O)C(=O)N1CCCC1C(=O)OCCCc1ccccc1 (stereo not given) | – | 95 | –
45 | COC(=O)C1CCCCN1C(=O)C(=O)c1ccccc1 (stereo not given) | > 10000 | > 10000 | –
46 | C=CC[C@@H]1/C=C(\C)CC(C)C[C@H](OC)[C@H]2O[C@@](O)(C(=O)C(=O)N3CCCC[C@H]3C(=O)O[C@H](/C(C)=C/[C@@H]3CC[C@@H](O)[C@H](OC)C3)[C@H](C)[C@@H](O)CC1=O)[C@H](C)C[C@@H]2OC (single isomer, unassigned) [TACROLIMUS ANHYDROUS] | 0.5 | – | Mean axonal area [10]: 67; Axonal regeneration rate [11]: 34; Mean axonal area [12]: 83; Mean axonal area [13]: 100; Mean axonal area [14]: 120; Axonal regeneration rate [15]: 16; Axonal regeneration rate [16]: 29
47 | CCC(C)(C)C(=O)C(=O)N1CCCCC1C(=O)OCCC(c1ccccc1)c1ccccc1 (stereo not given) | – | 8.3 | –
48 | CCC(C)(C)C(=O)C(=O)N1CCCCC1C(=O)OC(CCc1ccccc1)CCc1ccccc1 (stereo not given) | – | – | Recovery [4]: 71.6%
49 | COc1cc(C(=O)C(=O)N2CCCCC2C(=O)OCCCc2c[nH]c3ccccc23)cc(OC)c1OC (stereo not given) | 0.06 | – | –
50 | C/C=C/C[C@@H](C)[C@@H](O)[C@H]1C(=O)N[C@@H](CC)C(=O)N(C)CC(=O)N(C)[C@@H](CC(C)C)C(=O)N[C@@H](C(C)C)C(=O)N(C)[C@@H](C)C(=O)N[C@@H](C)C(=O)N[C@H](C)C(=O)N(C)[C@@H](CC(C)C)C(=O)N(C)[C@@H](CC(C)C)C(=O)N(C)[C@@H](C(C)C)C(=O)N1C | – | 50 | –
51 | CCC(C)(C)NC(=O)N1CCCC1C(=O)OCCCc1cccnc1 (stereo not given) | 1 | 742 | –
52 | COC(=O)C(=O)N1CCCCC1C(=O)OCCCC1CCCCC1 (stereo not given) | > 10000 | – | –
53 | O=C(OCCCc1cccnc1)C1CCCN1C(=O)NC1CCCCC1 (stereo not given) | – | 1480 | Recovery [3]: 59.8%
54 | O=C(C(=O)N1CCCCC1C(=O)OCCCC1CCCCC1)C1CCCCC1 (stereo not given) | 1 | 760 | –
55 | Cc1ccc(S(=O)(=O)N2CCCCC2C(=O)OCCCCc2ccccc2)cc1 (stereo not given) | – | – | Recovery [3]: 44.2%
56 | CC[C@@H]1/C=C(/C)[C@@H](O)[C@@H](C)C[C@H](OC)[C@H]2O[C@@](O)(C(=O)C(=O)N3CCCC[C@H]3C(=O)O[C@H](/C(C)=C/[C@@H]3CC[C@@H](O)[C@H](OC)C3)[C@H](C)[C@@H](O)CC1=O)[C@H](C)C[C@@H]2OC | 5 | 0.7 | –
57 | CCC(C)(C)C(=O)C(=O)N1CCCC1C(=O)OCCc1cc(OC)c(OC)c(OC)c1 (stereo not given) | – | 120 | –
58 | COc1ccc(CCCCOC(=O)C2CCCCN2C(=O)C(=O)C2CCCCC2)cc1 (stereo not given) | 6 | 103 | –
59 | O=C(OCCCc1cccnc1)C1CCCN1C(=S)NC1C2CC3CC(C2)CC1C3 (stereo not given) | 0.14 | 116 | Recovery [3]: 52.3%
